The source of these data is patent US6949533B2, “6,7-Oxygenated steroids and uses related thereto” (Inflazyme Pharmaceuticals Ltd., priority 1996, dated 2005).

Read-outs that look alike come from different tables or passages of the source.

In one experiment the test system is guinea pig ileum. Description: antigen-induced contraction of ileum from sensitized guinea pigs. The settings on record: Cavia porcellus, read-out: Percentage Inhibition, 30 μM compound, n = 3-4. On the procedure:
The ability of compounds to inhibit allergen-induced contraction of ileum from sensitized animals is indicative of antiallergic activity. Sensitized guinea pig ileum is particularly useful in measuring the immediate allergic response.
The guinea pig ileum has been used to evaluate the ability of compounds to inhibit allergan-induced histamine and mediator release causing smooth muscle contraction. Guinea pigs were sensitized by an intraperitoneal injection of 100 mg ovalbumin and an intramuscular injection of 50 mg ovalbumin on day 0, followed by a second intramuscular injection of 50 mg ovalbumin on day 1. […] Segments of ileum were prepared and suspended, with muscle contractions being measured in the longitudinal plane, in Tyrode's buffer at 37° C. and aerated with 5% CO2 in O2. Tissues were suspended under a resting tension of 2 grams and isometric contractions were measured using force-displacement transducers coupled to a polygraph. Tissues were stimulated with 3 μM histamine 3 times to ensure reproducible contractions were obtained. Tissues were then incubated with each compound (30 μM) or 0.15% dimethylsulphoxide (DMSO) as a control, for 20 min, after which time the tissues were challenged with 100 μg/ml ovalbumin. The magnitude of the contraction induced by OA in the presence of each compound was expressed as a percentage of the contraction obtained to 3 μM histamine. The protective effects of the various compounds on OA-induced contraction of guinea pig ileum from sensitized animals are summarized in Table 4.

The test system of experiment [1] is passively sensitized rat mast cells (RBL-2H3). In words: antigen-induced release of hexosaminidase from RBL-2H3 cells. In kind it is cell-based. The settings on record: for inhibition at 25 µM: Rattus norvegicus. As for the experimental part:
(§1) The anti-allergic effects of various polyhydroxylated steroids of the present invention were evaluated by measuring their effect on antigen-induced secretion of hexosaminidase from a passively sensitized rat mast cell line (RBL-2H3) and a murine mast cell line (MC/9). The ability of agents to inhibit the release of mast cell granule contents, e.g., histamine and hexosaminidase, is indicative of anti-allergy and/or anti-asthma activity.
(§2) Hexosaminidase is released from the mast cell granule along with histamine and other mediators during antigen challenge. RBL-2H3 and MC/9 cells were grown in culture and passively sensitized to dinitrophenol (DNP) using anti-human-DNP (IgE). Cells were incubated with each compound (25 μM) for 1 hour at 37° C. and then stimulated with 0.1 mg/ml DNP-HSA (antigen) for 15 min. Aliquots of the supernatant were removed and used to measure the amount of hexosaminidase released during challenge with the antigen. The amount of hexosaminidase present in the supernatant was determined calorimetrically by monitoring the enzymatic metabolism of p-nitrophenyl-N-acetyl-β-D-glucosaminide (p-NAG) over a period of 1 hour at 410 nm. The effect of each compound was determined as a percentage of the antigen-induced response (minus background release) obtained in the presence of DMSO alone, as set forth in Tables 2 and 3. These values were used to determine the degrees of inhibition of antigen-induced hexosaminidase release from the cells.

In another experiment the test system is mouse mast cells (MC/9). Description: antigen-induced release of hexosaminidase from MC/9 cells. In kind it is cell-based. The settings on record: for inhibition at 25 µM: Mus musculus, MC9, 25 μM compound, read-out: Percentage Inhibition (mean) MC/9 cells. On the procedure: as §1, §2
The mark [2] stands for this setting: RBL-2H3, 25 μM compound, antigen-induced hexosaminidase release, read-out: Percentage Inhibition (mean) RBL-2H3 Cells.
[3] abbreviates: RBL-2H3, read-out: Percentage Inhibition (mean) RBL-2H3 Cells.

As to `CC(C)(C)[Si](C)(C)OC1CC[C@]2(C)C3CC[C@@]4(C)C(CCC45OCCO5)C3[C@@H](O)[C@H](O)C2C1` (stereo partly drawn) [Compound 221], in the experiment on guinea pig ileum, the inhibition at 30 µM was 60.7%.

With `C/C=C1/CCC2C3C(CC[C@]12C)[C@@]1(C)CC[C@@H](O)CC1[C@H]1OC(C)(C)O[C@H]31` (stereo partly drawn) [Compound 338], the inhibition at 30 µM in the experiment with guinea pig ileum was 64%.

Take `CC(C)[C@H]1CC(=O)OC([C@@H](C)C2CC(=O)C3C4CCC5C[C@@H](O)CC[C@]5(C)C4CC[C@@]32C)C1` (stereo partly drawn) [Compound 266]: the inhibition at 30 µM in the experiment on guinea pig ileum came out at 17.4%. Further, the inhibition at 25 µM in experiment [1] (setting [2]) is -12.5%.

For `C/C=C1/CCC2C3CCC4C[C@@H](O)CC[C@]4(C)C3CC[C@]12C` (stereo partly drawn) [Compound 251], the inhibition at 30 µM in the experiment on guinea pig ileum was -10.5%.

As to `CC(=O)O[C@@H]1C2C(CC[C@@]3(C)C2CCC32OCCO2)[C@@]2(C)CC[C@H](O)CC2[C@H]1OC(C)=O` (stereo partly drawn) [Compound 322], the inhibition at 25 µM in experiment [1] (setting [2]) came to 25.6%.

As to `CC[C@H]1CCC2C3C(CC[C@@]21C)[C@@]1(C)C[C@@H](O)C(O)CC1[C@@H](O)[C@@H]3O` (stereo partly drawn) [Compound 360], in the experiment on guinea pig ileum, the inhibition at 30 µM turned out to be 50.5%. In addition, the inhibition at 25 µM in experiment [1] (setting [2]) was 76%.

Take `C[C@]12CC[C@H]3O[C@H]3[C@@H]1[C@@H](O)[C@H](O)[C@@H]1[C@@H]2CC[C@]2(C)[C@@H](O)CC[C@@H]12` [Compound 239, 3α,4α-epoxy-6α,7β,17β-trihydroxy-5α-androstane]: in experiment [1] (setting [3]), the inhibition at 25 µM worked out at 9.6%.

In the case of `C[C@]12CC[C@H](O)CC1[C@@H](O)[C@H](O)C1C2CC[C@@]2(C)C1CCC21OCCO1` (stereo partly drawn) [Compound 328], the inhibition at 25 µM in experiment [1] (setting [2]) worked out at 34.3%.

Regarding `CC1(C)O[C@@H]2C3C(CC[C@]4(C)C(=O)CCC34)[C@@]3(C)CC[C@H](O)CC3[C@H]2O1` (stereo partly drawn) [Compound 331], in the experiment on guinea pig ileum, the inhibition at 30 µM is 14.5%. Moreover, the inhibition at 25 µM in the experiment on mouse mast cells (MC/9) is 5%.

Consider `CC(C)CCCC(C)C1CCC2C3C(O)C(O)C4CC(O)CCC4(C)C3CCC12C` (stereo not drawn) [Compound 354], for which the “Percentage Inhibition (mean) RBL-2H3 Cells” value in experiment [1] (25 μM compound, antigen-induced hexosaminidase release) came to 30%. Moreover, the “Percentage Inhibition (mean) MC/9 cells” value in the experiment on mouse mast cells (MC/9) (25 μM compound) came to 76%.

In the case of `C[C@@]12CCCC1C1C(CC2)[C@@]2(C)CC[C@H](O)CC2[C@@H](O)[C@@H]1O` (stereo partly drawn) [Compound 351], the inhibition at 30 µM in the experiment with guinea pig ileum was 43.6%. Further, the inhibition at 25 µM in experiment [1] (setting [2]) came out at 33.6%.

As to `C/C=C1/CCC2C3C(CC[C@]12C)[C@@]1(C)CCCCC1[C@@H](O)[C@@H]3O` (stereo partly drawn) [Compound 346], the inhibition at 30 µM in the experiment with guinea pig ileum is 62.5%. Also, the inhibition at 25 µM in experiment [1] (setting [2]) amounted to 16%; in the experiment on mouse mast cells (MC/9) it was 61%.

With `C/C=C1/CCC2C3C(CC[C@]12C)[C@@]1(C)CC[C@@H](Cl)CC1[C@@H](O)[C@@H]3O` (stereo partly drawn) [Compound 337], the inhibition at 30 µM in the experiment on guinea pig ileum came to 50.7%. Also, the inhibition at 25 µM in experiment [1] (setting [2]) was determined as 44%; with mouse mast cells (MC/9) it was 56%.

With `CC(C)C1CC(O)OC(C(C)C2CCC3C4C(CC[C@]23C)[C@@]2(C)CC[C@@H](O)CC2[C@@H](O)[C@@H]4O)C1` (stereo partly drawn) [Compound 306, 22,29-epoxy-3,6,7,29-tetrahydroxystigmastanol], in experiment [1] (setting [2]), the inhibition at 25 µM worked out at 40.5%.

For the compound `C[C@]12CC[C@@H](O)[C@H](O)[C@@H]1[C@@H](O)[C@H](O)[C@@H]1[C@@H]2CC[C@]2(C)[C@@H](O)CC[C@@H]12` [Compound 241, 3α,4β,6α,7β,17β-pentahydroxy-5α-androstane], the inhibition at 25 µM in experiment [1] (setting [3]) was found to be 22%.

Take `C/C=C1/CCC2C3C(CC[C@]12C)[C@@]1(C)CCC(=O)CC1[C@@H](O)[C@@H]3O` (stereo partly drawn) [Compound 335]: the inhibition at 30 µM with guinea pig ileum was determined as 30.7%. The inhibition at 25 µM in experiment [1] (setting [2]) was 56%; in the experiment with mouse mast cells (MC/9) it was 69%.

As to `C/C=C1/CCC2C3C(CC[C@]12C)[C@@]1(C)CC[C@@H](Cl)CC1[C@H]1OC(C)(C)O[C@H]31` (stereo partly drawn) [Compound 336], the inhibition at 30 µM with guinea pig ileum came out at 79.3%.

On to `CC[C@H]1CCC2C3C(CC[C@@]21C)[C@@]1(C)CC[C@@H](O)CC1[C@H]1OC(C)(C)O[C@H]31` (stereo partly drawn) [Compound 361], for which, in the experiment with guinea pig ileum, the inhibition at 30 µM was determined as 55%. Moreover, the inhibition at 25 µM with mouse mast cells (MC/9) was 13%.

As for `C[C@H]1CCC2C3C(CC[C@@]21C)[C@@]1(C)CC[C@H](O)CC1[C@@H](O)[C@@H]3O` (stereo partly drawn) [Compound 343], the inhibition at 30 µM in the experiment with guinea pig ileum was 48.9%. The inhibition at 25 µM amounted to 52% in experiment [1] (setting [2]) and 40% with mouse mast cells (MC/9).
